Measurements taken from US7655237B2, “Use of soluble CD14 for treatment of type 2 diabetes mellitus” (Bridge Bioresearch Limited, priority 2003, dated 2010).
Read-outs that look alike come from different tables or passages of the source.

Columns and labels:
[1] = system: C57BL/6J ob/ob mice; experiment: treatment of insulin-resistant diabetic C57BL/6J ob/ob mice, intraperitoneal glucose tolerance test; assay type: in vivo
Description: The objective of this experiment was to study the effect of systemic administration of human recombinant sCD14 (rhCD14) with respect to relevant insulin resistance parameters in experimental mice (mice C57BL/6J ob/ob).
Experimental animals: Mice strains C57BL/6J ob/ob (The Jackson lab.). Males of 10 weeks old. These animals had obesity with hyperphagia, hyperinsulinemia (the presence of excess insulin in the blood), insulin resistance and moderate hyperglycemia (an excess of sugar in the blood).
Treatment of the mice with rhCD14: rhCD14 was continuously infused for 12 days by use of Alzet® pumps (pump 1002, 100 μl) implanted subcutaneously on the back of the animals. 20 mice were used. 10 with rhCD14 and 10 with saline serum (control). The dose was 1 μg/g weight of mice/day and it was administrated subcutaneously for 12 days.
Assay for glucose tolerance: Finalized the 12 days and after 16 hours of fasting, an intraperitoneal glucose tolerance test (GTT) was made. 2 g/kg of glucose (Glucosmon, 50%) were injected intraperitoneally. Blood samples were taken from the tail of the mice (20 μl) at 0, 15, 30, 60, 120 and 180 minutes after the glucose administration. The blood glucose levels were measured using a conventional glucometer (Menarini) and the insulin levels were meed by ELISA (Mercodia Ultrasensitive Mouse Insulin ELISA).

[2] = system: C57BL/6J mice (HF mice); experiment: treatment of insulin-resistant obese C57BL/6J mice (HF mice), glucose tolerance test; assay type: in vivo; settings: HF diet obese mice
Description: The objective of this experiment was to study the effect of systemic administration of human recombinant sCD14 (rhCD14) with respect to relevant insulin resistance parameters in experimental mice (C57BL/6J mice (HF mice).
Experiential animals: Male mice strains C57BL/6J (HF mice) C(he Jackson lab.). These animals had obesity.
Treatment of the mice with rhCD14: Male C57BL/6J mice were fed a HF diet (Harlan Teklad No. 88137: 21% by wt and 42% kcal from fat) for 26-28 weeks. The last 12 days, mice received a dose of 1 μg/g bw per day of hCD14 in two injections (0.5 μg/g each one) every 12 hours. The control group was treated with vehicle (saline serum) alone. Each group contained 9 mice.
Assay for Glucose Tolerance: As in Example 1.

[3] = system: LPS; settings: biotinylated LPS binding to sCD14-coated wells, cited from earlier work

Substance	basal levels of serum glucose compared to the control group ([1]; 1 μg/g/day s.c. for 12 days)	concentrations of serum insulin ([1]; 1 μg/g/day s.c. for 12 days)	fasting blood glucose ([1]; 1 μg/g/day s.c. infusion for 12 days, 16 hours fasting, mean±SEM, control 242±30, P=0.02) [mg/dL]	body weight, treated vs controls ([1]; 12 days treatment)	glucose curves in GTT, treated vs control (two-way ANOVA) ([1]; i.p. GTT 2 g/kg glucose, 0-180 min, P<0.02)	insulin curves in GTT, treated vs control (two-way ANOVA) ([1]; i.p. GTT, P<0.0001)	concentrations of serum insulin ([2]; 1 μg/g bw per day for 12 days)	basal levels of serum glucose compared to the control group ([2]; 1 μg/g bw per day in two injections for 12 days)	body weight, treated vs controls ([2]; 12 days treatment)	insulin curves in GTT, treated vs control (two-way ANOVA) ([2]; P<0.0001)	glucose curves in GTT, treated vs control (two-way ANOVA) ([2]; P<0.002)	inhibition of LPS binding ([3]; concentration 1.7 μM) [%]	inhibition of LPS binding ([3]; concentration 7 μM) [%]
rhCD14: human recombinant soluble CD14 glycoprotein, binds bacterial lipopolysaccharide (LPS)	decreased	also decreased	153 ± 14	did not produce significant changes	significant difference	significant difference	increased	decreased	did not produce significant changes	significant difference	significant difference	84	–
AELQQWLKPGLKVLSIAQAHSLNFSC (mammalian) [peptide]	–	–	–	–	–	–	–	–	–	–	–	72	84
